Experimental data from patent US7704990B2, “Agents for preventing and treating disorders involving modulation of the RyR receptors” (The Trustees of Columbia University in the City of New York, priority 2005, dated 2010).

What was measured:
[1] = target: T1, RyR1 (Mus musculus, UniProt E9PZQ0); test: Single-channel recordings of RyR1 from soleus muscle of mdx mice; type: biochemical; details: 1.0 μM JTV-519, cytoplasmic Ca2+ 150 nM, vs untreated wild-type
T1 construct: single channel current trace of RyR1 from soleus muscle of control (wild-type) mouse; from tissue; host or cells: skeletal (soleus) muscle of mdx mice or of wild-type mice with heart failure
Description: Embodiments A and B are, respectively, a single channel current trace and an amplitude histogram of RyR1 from soleus muscle of a control (wild-type) mouse under resting conditions. Embodiments C and D are, respectively, a single channel current trace and an amplitude histogram of RyR1 from soleus muscle of an mdx mouse.
In FIG. 11, channel openings are represented as upward deflections; ‘c’ indicates the closed state; and 4 pA current open amplitude is indicated by dash. Upper traces represent 5 secs and lower traces 500 ms; dotted lines indicate subconductance states.
Increased Po in mdx mice is consistent with intracellular Ca^2+ leak. The amplitude histograms in embodiments B, D, and F show multiple subconductance states consistent with calstabin1 (FKBP12) depletion in RyR1 from mdx soleus muscle.

[2] = system: soleus muscle; test: Soleus muscle fatigue time in mice with heart failure from myocardial infarction; type: in vivo, mouse
Description: Soleus muscles from JTV519-treated wild-type mice or calstabin2^−/− mice with heart failure from myocardial infarction are more resistant to fatigue (P<0.05) compared to placebo-treated mice. After completion of treatment, soleus muscle was dissected and mounted in a tissue bath to assess isolated skeletal muscle function. Representative 50% of maximal tetanic force fatigue time tracings are shown for wild-type and calstabin2^−/− mice, treated with JTV519 or placebo, in embodiment A. In embodiment B are shown bar graph summarizing mean time to fatigue.

[3] = target: T2, RyR1 / calstabin1 (Mus musculus, UniProt E9PZQ0); test: RyR1 PKA phosphorylation and calstabin1 bound to RyR1 in soleus muscle of heart failure mice; type: in vivo
T2 construct: increase of calstabin1 in the RyR1 complex in soleus muscles in vivo; from tissue; host or cells: soleus muscle of wild-type and calstabin2-/- mice with post-infarction heart failure
Protocol: Embodiment A are bar graphs of PKA phosphorylation of RyR1 at Ser-2844 in mice, which corresponds to Ser-2843 in humans.
Equivalent amounts of RyR1 were immunoprecipitated with an antibody against RyR1. Embodiment A are bar graphs show the amount of PKA phosphorylation of RyR1 at Ser-2844 in mice (corresponding to human Ser-2843). […] Embodiment B are bar graphs showing the amount of calstabin1 bound to RyR1 from wild-type or calstabin2^−/− mice treated with JTV519 or placebo. Mice were treated with JTV519 by implantable osmotic minipumps using a dose of 0.5 mg/kg/day.

[4] = target: T1, RyR1; test: RyR1 single-channel tracings from skeletal muscle of heart failure mice treated in vivo; details: mice with heart failure and increased muscle fatigue, 150 nM cytoplasmic Ca2+
Description: Embodiments A and C are single channel current traces of wild-type mice with heart failure treated with placebo (A) and JTV-519 (C). Embodiments B and D are amplitude histograms for wild-type mice with heart failure treated with placebo (B) and JTV-519 (D).
For the amplitude histograms in embodiment B and D, amplitude is represented on the x axis, and events indicates the number of channel openings. Po, To and Tc values correspond to the representative traces. Treatment as indicated on top of traces.

[5] = target: PKA phosphorylated RyR1 / calstabin1 (Homo sapiens, UniProt P21817); test: Calstabin1 binding to immunoprecipitated PKA phosphorylated skeletal RyR1 at increasing JTV519 concentrations
Sequence of PKA phosphorylated RyR1 / calstabin1 (P21817 whole entry): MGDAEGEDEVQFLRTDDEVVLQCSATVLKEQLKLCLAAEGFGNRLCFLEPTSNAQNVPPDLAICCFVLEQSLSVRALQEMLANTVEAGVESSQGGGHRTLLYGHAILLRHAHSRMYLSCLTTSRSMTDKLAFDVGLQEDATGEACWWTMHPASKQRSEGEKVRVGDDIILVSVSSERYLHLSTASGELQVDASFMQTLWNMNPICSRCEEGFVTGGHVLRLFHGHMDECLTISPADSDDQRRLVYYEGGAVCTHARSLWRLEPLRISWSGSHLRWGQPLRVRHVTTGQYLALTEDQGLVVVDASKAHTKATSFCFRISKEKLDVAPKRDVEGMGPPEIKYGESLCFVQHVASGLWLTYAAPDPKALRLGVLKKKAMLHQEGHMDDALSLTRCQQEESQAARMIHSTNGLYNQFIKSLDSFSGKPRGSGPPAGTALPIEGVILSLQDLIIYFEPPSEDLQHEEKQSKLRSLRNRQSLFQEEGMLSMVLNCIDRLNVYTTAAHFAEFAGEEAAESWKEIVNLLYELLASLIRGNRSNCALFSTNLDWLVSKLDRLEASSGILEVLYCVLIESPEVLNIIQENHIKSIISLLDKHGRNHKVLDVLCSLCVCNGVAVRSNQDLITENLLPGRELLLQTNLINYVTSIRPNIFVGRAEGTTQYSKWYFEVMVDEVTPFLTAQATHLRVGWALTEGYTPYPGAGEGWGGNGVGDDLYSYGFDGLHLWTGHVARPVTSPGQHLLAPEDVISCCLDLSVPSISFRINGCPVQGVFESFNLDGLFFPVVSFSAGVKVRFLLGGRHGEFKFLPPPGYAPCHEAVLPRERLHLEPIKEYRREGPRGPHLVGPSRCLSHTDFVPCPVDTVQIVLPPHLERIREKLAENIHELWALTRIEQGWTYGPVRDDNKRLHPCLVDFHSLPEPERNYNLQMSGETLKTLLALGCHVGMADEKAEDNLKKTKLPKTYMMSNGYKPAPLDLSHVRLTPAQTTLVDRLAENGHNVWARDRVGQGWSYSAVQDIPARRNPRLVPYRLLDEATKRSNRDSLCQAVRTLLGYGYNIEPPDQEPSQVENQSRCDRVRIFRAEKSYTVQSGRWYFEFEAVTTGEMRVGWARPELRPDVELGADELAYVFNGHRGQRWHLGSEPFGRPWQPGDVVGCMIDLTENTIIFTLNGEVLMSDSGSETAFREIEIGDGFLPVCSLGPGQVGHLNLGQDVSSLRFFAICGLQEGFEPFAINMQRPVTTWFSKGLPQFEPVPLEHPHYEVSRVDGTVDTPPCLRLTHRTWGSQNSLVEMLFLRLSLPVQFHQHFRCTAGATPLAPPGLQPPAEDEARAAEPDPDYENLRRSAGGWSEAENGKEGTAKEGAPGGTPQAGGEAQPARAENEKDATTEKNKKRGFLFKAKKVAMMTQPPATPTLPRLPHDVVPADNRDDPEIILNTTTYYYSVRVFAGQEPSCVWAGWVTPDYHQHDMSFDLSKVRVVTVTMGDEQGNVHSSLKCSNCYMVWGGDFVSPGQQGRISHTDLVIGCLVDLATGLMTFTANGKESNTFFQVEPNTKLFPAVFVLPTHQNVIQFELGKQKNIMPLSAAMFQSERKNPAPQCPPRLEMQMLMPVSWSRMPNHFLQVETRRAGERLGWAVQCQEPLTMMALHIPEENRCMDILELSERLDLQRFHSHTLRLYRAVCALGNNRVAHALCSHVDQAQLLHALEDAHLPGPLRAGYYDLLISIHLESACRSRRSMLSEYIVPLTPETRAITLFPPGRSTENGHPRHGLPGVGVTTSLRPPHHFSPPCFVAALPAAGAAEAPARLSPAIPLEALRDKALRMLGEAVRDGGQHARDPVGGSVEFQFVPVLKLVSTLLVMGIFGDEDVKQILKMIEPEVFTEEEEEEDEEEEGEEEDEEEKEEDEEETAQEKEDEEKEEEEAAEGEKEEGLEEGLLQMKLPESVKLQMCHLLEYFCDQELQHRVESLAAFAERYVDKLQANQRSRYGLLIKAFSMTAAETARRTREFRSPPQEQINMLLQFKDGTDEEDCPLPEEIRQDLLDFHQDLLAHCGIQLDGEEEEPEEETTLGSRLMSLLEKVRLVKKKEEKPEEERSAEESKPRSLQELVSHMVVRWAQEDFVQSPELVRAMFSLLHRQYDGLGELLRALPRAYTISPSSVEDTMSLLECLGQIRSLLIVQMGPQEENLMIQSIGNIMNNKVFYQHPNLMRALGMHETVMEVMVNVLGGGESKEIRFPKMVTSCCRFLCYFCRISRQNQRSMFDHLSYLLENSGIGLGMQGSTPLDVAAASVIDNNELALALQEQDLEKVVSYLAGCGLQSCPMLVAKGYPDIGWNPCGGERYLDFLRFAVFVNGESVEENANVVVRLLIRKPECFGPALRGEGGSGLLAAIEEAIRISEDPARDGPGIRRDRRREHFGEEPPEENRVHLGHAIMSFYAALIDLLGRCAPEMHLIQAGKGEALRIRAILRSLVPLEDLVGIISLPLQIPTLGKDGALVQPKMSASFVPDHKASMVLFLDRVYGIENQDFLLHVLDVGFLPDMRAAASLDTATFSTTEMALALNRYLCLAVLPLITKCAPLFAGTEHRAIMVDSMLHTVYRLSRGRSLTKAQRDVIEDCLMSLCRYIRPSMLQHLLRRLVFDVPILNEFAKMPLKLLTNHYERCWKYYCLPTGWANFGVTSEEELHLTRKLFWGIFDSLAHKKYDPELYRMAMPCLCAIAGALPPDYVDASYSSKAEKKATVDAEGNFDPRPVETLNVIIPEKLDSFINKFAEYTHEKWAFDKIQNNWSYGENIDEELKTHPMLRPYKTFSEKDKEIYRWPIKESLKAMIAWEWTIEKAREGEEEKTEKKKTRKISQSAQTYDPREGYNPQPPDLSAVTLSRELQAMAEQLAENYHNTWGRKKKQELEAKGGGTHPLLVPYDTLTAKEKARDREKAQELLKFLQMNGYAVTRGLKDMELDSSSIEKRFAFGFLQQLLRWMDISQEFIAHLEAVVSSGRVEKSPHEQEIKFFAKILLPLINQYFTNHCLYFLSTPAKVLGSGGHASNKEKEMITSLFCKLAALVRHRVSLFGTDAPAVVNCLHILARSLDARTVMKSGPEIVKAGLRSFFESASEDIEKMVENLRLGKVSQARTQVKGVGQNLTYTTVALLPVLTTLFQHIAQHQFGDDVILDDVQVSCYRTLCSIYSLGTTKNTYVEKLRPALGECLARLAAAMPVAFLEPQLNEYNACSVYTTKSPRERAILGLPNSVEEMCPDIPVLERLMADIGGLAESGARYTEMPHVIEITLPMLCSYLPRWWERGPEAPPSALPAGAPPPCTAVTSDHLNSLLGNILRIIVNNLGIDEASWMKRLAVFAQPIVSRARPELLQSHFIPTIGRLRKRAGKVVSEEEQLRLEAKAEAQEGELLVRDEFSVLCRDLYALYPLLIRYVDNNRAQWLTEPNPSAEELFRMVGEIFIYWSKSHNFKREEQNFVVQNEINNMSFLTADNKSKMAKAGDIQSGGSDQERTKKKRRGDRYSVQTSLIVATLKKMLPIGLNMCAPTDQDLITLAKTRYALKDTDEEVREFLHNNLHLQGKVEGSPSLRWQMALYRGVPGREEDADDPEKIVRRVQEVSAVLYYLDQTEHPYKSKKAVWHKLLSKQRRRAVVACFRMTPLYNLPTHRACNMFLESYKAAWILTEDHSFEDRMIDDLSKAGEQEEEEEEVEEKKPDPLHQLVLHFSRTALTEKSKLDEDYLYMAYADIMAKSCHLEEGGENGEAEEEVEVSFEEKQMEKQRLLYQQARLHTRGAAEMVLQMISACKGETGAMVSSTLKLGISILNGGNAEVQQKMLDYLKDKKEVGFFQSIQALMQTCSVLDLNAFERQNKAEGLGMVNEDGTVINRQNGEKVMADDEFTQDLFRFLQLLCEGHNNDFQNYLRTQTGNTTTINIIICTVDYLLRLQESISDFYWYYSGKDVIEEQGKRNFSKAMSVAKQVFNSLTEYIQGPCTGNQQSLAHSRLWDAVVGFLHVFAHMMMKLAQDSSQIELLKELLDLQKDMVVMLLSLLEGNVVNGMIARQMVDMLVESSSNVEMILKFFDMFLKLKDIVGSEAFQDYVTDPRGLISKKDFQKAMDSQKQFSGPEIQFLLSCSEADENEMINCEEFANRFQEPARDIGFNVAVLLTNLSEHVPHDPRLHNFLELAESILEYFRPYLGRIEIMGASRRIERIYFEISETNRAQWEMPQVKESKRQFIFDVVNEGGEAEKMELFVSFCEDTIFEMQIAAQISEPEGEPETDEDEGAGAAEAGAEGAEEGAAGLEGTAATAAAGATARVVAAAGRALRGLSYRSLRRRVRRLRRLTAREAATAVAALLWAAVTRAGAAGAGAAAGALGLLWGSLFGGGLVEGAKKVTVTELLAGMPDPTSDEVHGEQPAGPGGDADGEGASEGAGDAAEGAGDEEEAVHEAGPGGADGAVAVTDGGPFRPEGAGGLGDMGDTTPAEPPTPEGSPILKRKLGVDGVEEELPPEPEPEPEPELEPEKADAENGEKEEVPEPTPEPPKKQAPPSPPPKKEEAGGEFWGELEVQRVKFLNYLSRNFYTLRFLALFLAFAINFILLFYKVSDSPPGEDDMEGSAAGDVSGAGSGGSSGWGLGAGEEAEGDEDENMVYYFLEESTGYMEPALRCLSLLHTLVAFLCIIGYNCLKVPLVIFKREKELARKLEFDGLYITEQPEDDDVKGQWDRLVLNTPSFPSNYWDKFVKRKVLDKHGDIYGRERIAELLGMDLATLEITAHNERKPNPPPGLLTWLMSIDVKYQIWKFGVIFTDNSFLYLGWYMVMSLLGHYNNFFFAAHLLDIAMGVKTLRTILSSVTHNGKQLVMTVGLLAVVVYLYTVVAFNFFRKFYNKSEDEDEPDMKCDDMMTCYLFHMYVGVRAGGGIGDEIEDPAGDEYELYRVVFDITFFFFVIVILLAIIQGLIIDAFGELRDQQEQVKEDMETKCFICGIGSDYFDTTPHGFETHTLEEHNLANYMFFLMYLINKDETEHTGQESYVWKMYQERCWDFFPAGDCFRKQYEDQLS
Sequence of PKA phosphorylated RyR1 / calstabin1 (P62942 2-108 partner limits assumed): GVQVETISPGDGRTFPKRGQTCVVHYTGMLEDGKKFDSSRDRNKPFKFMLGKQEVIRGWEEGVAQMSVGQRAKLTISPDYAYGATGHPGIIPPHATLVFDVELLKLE
Description: Sediment represents only calstabin bound to RyR.

[6] = system: FKBP12.6+/- mice

Question: `COc1ccc2c(c1)CN(C(=O)CCN1CCC(Cc3ccccc3)CC1)CCS2.Cl` [JTV-519, 4-[3-(4-benzylpiperidin-1-yl)propionyl]-7-methoxy-2,3,4,5-tetrahydro-1,4-benzothiazepine monohydrochloride] was tested. Which RyR1 channel activity [1] did it give?
Answer: normal activity

Question: What about the “soleus muscle fatigue times” value ([2]; calstabin2-/- knockout mice with heart failure) of the same compound?
Answer: significantly improved

Question: What about the “soleus muscle fatigue times” value ([2]; wild-type mice with heart failure, vs placebo) of the same compound?
Answer: improved soleus muscle fatigue times

Question: What about the “calstabin1 in the RyR1 complex in soleus muscle” value ([3]; wild-type and calstabin2-/- mice, implantable osmotic minipumps, 0.5 mg/kg/day) of the same compound?
Answer: highly significant increase

Question: And the “RyR1 PKA phosphorylation at Ser-2844” value ([3]; wild-type animals)?
Answer: significant decrease

Question: And the “RyR1 channel gating in skeletal muscle” value [4]?
Answer: normalized

Question: What about the “binding affinity of calstabin1 for PKA phosphorylated RyR1” value ([5]; relative to non-PKA phosphorylated RyR1) of the same compound?
Answer: restored

Question: And the “concentration that increased the binding affinity of calstabin for RyR” value ([5]; skeletal RyR1 with calstabin1, immunoblotting)?
Answer: ≥ 50 nM

Question: What about the “resting heart rate or other ECG parameters” value ([6]; 0.5 mg/kg per hour for 7 days, implanted osmotic mini-pump) of the same compound?
Answer: no effect

Question: And the “plasma levels that prevent cardiac arrhythmias and sudden cardiac death” value ([6]; FKBP12.6+/- mice, exercise testing and 0.5 mg/kg epinephrine)?
Answer: 1 µM

Question: And the exercise-induced ventricular arrhythmias ([6]; haploinsufficient calstabin (FKBP12.6)+/- mice)?
Answer: prevention
